This passage reports T/C results from PubChem BioAssay AID330 (DTP/NCI, 2004).

For this test, the system named is P388 leukemia ip, CD2F1 mice, survival T/C. The experiment in a line: NCI In Vivo Anticancer Drug Screen. Data for tumor model P388 Leukemia (intraperitoneal) in CD2F1 (CDF1) mice. Conditions: endpoint: median survival time, higher = longer survival. In outline:
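Mice carrying the transplanted tumor received test compound or vehicle. Survival was recorded in each group, and the value is the treated-group measurement divided by that of the vehicle-treated control group.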

[1] abbreviates: dose: 50.0 mg/kg/injection, schedule: Q01DX005 (ip), vehicle: saline with Tween-80.
Where [2] appears, read: dose: 100.0 mg/kg/injection, schedule: Q01DX005 (ip), vehicle: saline with Tween-80.
The mark [3] stands for this setting: dose: 200.0 mg/kg/injection, schedule: Q01DX005 (ip), vehicle: saline with Tween-80.
[4] abbreviates: dose: 60.0 mg/kg/injection, schedule: Q01DX005 (ip), vehicle: saline with Tween-80.
Where [5] appears, read: dose: 120.0 mg/kg/injection, schedule: Q01DX005 (ip), vehicle: saline with Tween-80.
Setting [6] is: dose: 240.0 mg/kg/injection, schedule: Q01DX005 (ip), vehicle: saline with Tween-80.
The mark [7] stands for this setting: dose: 50.0 mg/kg/injection, schedule: Q01DX005 (ip), vehicle: Klucel (hydroxypropylcellulose) (HPC).
Where [8] appears, read: dose: 100.0 mg/kg/injection, schedule: Q01DX005 (ip), vehicle: Klucel (hydroxypropylcellulose) (HPC).
The mark [9] stands for this setting: dose: 200.0 mg/kg/injection, schedule: Q01DX005 (ip), vehicle: Klucel (hydroxypropylcellulose) (HPC).
Setting [10] is: dose: 100.0 mg/kg/injection, schedule: Q01DX001 (ip), vehicle: saline sonified.
[11] abbreviates: dose: 200.0 mg/kg/injection, schedule: Q01DX001 (ip), vehicle: saline sonified.
[12] abbreviates: dose: 100.0 mg/kg/injection, schedule: Q04DX003 (ip), vehicle: saline.
Setting [13] is: dose: 100.0 mg/kg/injection, schedule: Q04DX003 (ip), vehicle: Klucel (hydroxypropylcellulose) (HPC).
Where [14] appears, read: dose: 200.0 mg/kg/injection, schedule: Q04DX003 (ip), vehicle: Klucel (hydroxypropylcellulose) (HPC).
The mark [15] stands for this setting: dose: 400.0 mg/kg/injection, schedule: Q04DX003 (ip), vehicle: Klucel (hydroxypropylcellulose) (HPC).
Where [16] appears, read: dose: 50.0 mg/kg/injection, schedule: Q01DX009 (ip), vehicle: saline.
The mark [17] stands for this setting: dose: 100.0 mg/kg/injection, schedule: Q01DX009 (ip), vehicle: saline.
Setting [18] is: dose: 12.5 mg/kg/injection, schedule: Q01DX009 (ip), vehicle: saline.
The mark [19] stands for this setting: dose: 25.0 mg/kg/injection, schedule: Q01DX009 (ip), vehicle: saline.

Values joined by “and” are separate entries in the source; they are usually repeats but may differ in a detail not shown here. Equal values may be shown once. Toxic doses and inconclusive results are not listed.

On to `CC(=O)N1c2ccccc2Oc2ccc3ccccc3c21`, for which the T/C runs as follows: under setting [1], 104 % of control; under setting [2], 100 % of control; under setting [3], 97 % of control.
Turning to `C=C(C)CCCCOCOCCOC`, the T/C is 99 % of control under setting [4], 99 % of control under setting [5] and 97 % of control under setting [6].
On to `O/N=C(\CNC/C(=N\O)NO)NO`, for which the T/C is 90 % of control under setting [7], 97 % of control under setting [8] and 93 % of control under setting [9].
`CCCCCCCN(CCCCCCC)CC(O)c1cc2ccc(Cl)cc2nc1-c1ccc(Cl)cc1` (stereo not drawn): the T/C runs as follows: under setting [10], 90 % of control; under setting [11], 90 % of control; (dose: 400.0 mg/kg/injection, schedule: Q01DX001 (ip), vehicle: saline sonified) 104 % of control.
`O=C(NC(CO)C(=O)O)OCc1ccccc1` (stereo not drawn): the T/C (dose: 50.0 mg/kg/injection, schedule: Q01DX009 (ip), vehicle: Klucel (hydroxypropylcellulose) (HPC)) is 94 % of control; the T/C (dose: 100.0 mg/kg/injection, schedule: Q01DX009 (ip), vehicle: Klucel (hydroxypropylcellulose) (HPC)) was 99 % of control; the T/C (dose: 200.0 mg/kg/injection, schedule: Q01DX009 (ip), vehicle: Klucel (hydroxypropylcellulose) (HPC)) is 89 % of control.
Consider `CCOc1ccc(N=Nc2c(-c3ccccc3)nn(C(=S)S)c2-c2ccccc2)cc1`, for which the T/C by setting is: under setting [1], 88 % of control; under setting [2], 92 % of control; under setting [3], 90 % of control.
For `COc1ccc2ncc(COC(=O)NCCCl)c(COC(=O)NCCCl)c2c1`, the T/C by setting is: (dose: 25.0 mg/kg/injection, schedule: Q01DX005 (ip), vehicle: Klucel (hydroxypropylcellulose) (HPC)) 92 % of control; under setting [7], 86 % of control; under setting [8], 88 % of control; under setting [9], 86 % of control.
Take `O=[N+]([O-])c1ccc(-n2[nH]nnc2=S)cc1`: the T/C is 98 % of control and 104 % of control (dose: 50.0 mg/kg/injection, schedule: Q04DX003 (ip), vehicle: saline with Tween-80); 100 % of control and 104 % of control (dose: 100.0 mg/kg/injection, schedule: Q04DX003 (ip), vehicle: saline with Tween-80); 98 % of control and 91 % of control (dose: 200.0 mg/kg/injection, schedule: Q04DX003 (ip), vehicle: saline with Tween-80).
On to `CCN(CC)CCCN(c1ccccc1)C1Cc2ccccc2C1`, for which the T/C is 95 % of control (dose: 15.0 mg/kg/injection, schedule: Q01DX009 (ip), vehicle: saline); 87 % of control (dose: 30.0 mg/kg/injection, schedule: Q01DX009 (ip), vehicle: saline); 101 % of control (dose: 60.0 mg/kg/injection, schedule: Q01DX009 (ip), vehicle: saline).
Turning to `CCCC(=O)O[C@H]1/C(=C/C(=O)OC)C[C@H]2C[C@H]([C@@H](C)O)OC(=O)C[C@H](O)C[C@@H]3C[C@H](OC(=O)CC(C)C)C(C)(C)[C@](O)(C[C@@H]4C/C(=C\C(=O)OC)C[C@H](/C=C/C(C)(C)[C@]1(O)O2)O4)O3`, the T/C is 111 % of control (dose: 0.01 mg/kg/injection, schedule: Q01DX009 (ip), vehicle: saline + alcohol) and 113 % of control (dose: 0.05 mg/kg/injection, schedule: Q01DX009 (ip), vehicle: saline + alcohol).
For `C[C@@H](O)c1nc(C(N)=O)cs1`, the T/C reads like this: under setting [4], 104 % of control; under setting [5], 109 % of control; under setting [6], 106 % of control.
For `Cc1ccc(S(=O)(=O)N/N=C/C=C\C(=O)O)cc1`, the T/C was 101 % of control (dose: 12.5 mg/kg/injection, schedule: Q01DX009 (ip), vehicle: distilled water + Tween-80); 99 % of control (dose: 25.0 mg/kg/injection, schedule: Q01DX009 (ip), vehicle: distilled water + Tween-80); 107 % of control (dose: 50.0 mg/kg/injection, schedule: Q01DX009 (ip), vehicle: distilled water + Tween-80); 100 % of control (dose: 100.0 mg/kg/injection, schedule: Q01DX009 (ip), vehicle: distilled water + Tween-80); 94 % of control (dose: 200.0 mg/kg/injection, schedule: Q01DX009 (ip), vehicle: distilled water + Tween-80); 110 % of control (dose: 400.0 mg/kg/injection, schedule: Q01DX009 (ip), vehicle: distilled water + Tween-80).
As to `N=c1c2ccccc2c2ccccc2n1O`, the T/C was 110 % of control (dose: 50.0 mg/kg/injection, schedule: Q01DX001 (ip), vehicle: saline sonified); 90 % of control under setting [10]; 100 % of control under setting [11].
As for `Cc1ccc(S(=O)(=O)NC(=O)Nc2sc(=S)c3c(c2C#N)CCCC3)cc1`, the T/C runs as follows: under setting [1], 100 % of control; under setting [2], 103 % of control.
Turning to `CN1/C(=C2\C=CC=C\C2=N/S(=O)(=O)c2ccccc2)Sc2ccccc21`, the T/C is, setting by setting: under setting [12], 104 % of control; (dose: 200.0 mg/kg/injection, schedule: Q04DX003 (ip), vehicle: saline) 99 % of control; (dose: 400.0 mg/kg/injection, schedule: Q04DX003 (ip), vehicle: saline) 94 % of control.
Consider `N/N=C1\C(Cl)=C(Cl)c2ccccc21`, for which the T/C is, setting by setting: under setting [7], 90 % of control; under setting [8], 93 % of control; under setting [9], 90 % of control.
`COc1ccc(Nc2c3ccccc3nc3ccccc23)cc1`: the T/C is 111 % of control (dose: 12.5 mg/kg/injection, schedule: Q01DX009 (ip), vehicle: saline with Tween-80); 151 % of control (dose: 50.0 mg/kg/injection, schedule: Q01DX009 (ip), vehicle: saline with Tween-80); 109 % of control (dose: 100.0 mg/kg/injection, schedule: Q01DX009 (ip), vehicle: saline with Tween-80).
Turning to `Cc1cc(C)[s+]s1`, the T/C by setting is: (dose: 12.5 mg/kg/injection, schedule: Q01DX009 (ip), vehicle: water) 109 % of control; (dose: 25.0 mg/kg/injection, schedule: Q01DX009 (ip), vehicle: water) 109 % of control; (dose: 50.0 mg/kg/injection, schedule: Q01DX009 (ip), vehicle: water) 115 % of control; (dose: 100.0 mg/kg/injection, schedule: Q01DX009 (ip), vehicle: water) 117 % of control.
Take `O=C(O)CN(CCN(CC(=O)O)CC(=O)O)CC(=O)O`: under setting [12], the T/C was 100 % of control.
Consider `CCOP(O)(=S)OCC.[Gd]`, for which the T/C is 90 % of control under setting [13], 90 % of control under setting [14] and 90 % of control under setting [15].
Turning to `CS(=O)CCC1C(=O)OC(C(C)(C)C)N1C(=O)c1ccccc1` (stereo not drawn), the T/C reads like this: under setting [4], 101 % of control; under setting [5], 100 % of control; under setting [6], 105 % of control.
`COc1ccc[nH]c1=O`: the T/C by setting is: under setting [16], 102 % of control and 103 % of control; under setting [17], 106 % of control and 109 % of control; (dose: 200.0 mg/kg/injection, schedule: Q01DX009 (ip), vehicle: saline) 100 % of control and 105 % of control; (dose: 400.0 mg/kg/injection, schedule: Q01DX009 (ip), vehicle: saline) 105 % of control and 112 % of control; (dose: 600.0 mg/kg/injection, schedule: Q01DX009 (ip), vehicle: saline) 106 % of control and 114 % of control.
Turning to `Nc1ccc2c(c1)Cc1cc(NC=O)ccc1-2`, the T/C runs as follows: under setting [18], 94 % of control; under setting [19], 91 % of control; under setting [16], 91 % of control; under setting [17], 91 % of control.
On to `CSCCC(NC=O)C(=O)O` (stereo not drawn), for which the T/C reads like this: (dose: 3.12 mg/kg/injection, schedule: Q01DX009 (ip), vehicle: saline) 88 % of control; (dose: 6.25 mg/kg/injection, schedule: Q01DX009 (ip), vehicle: saline) 91 % of control; under setting [18], 87 % of control; under setting [19], 92 % of control; (dose: 50.0 mg/kg/injection, schedule: Q01DX005 (ip), vehicle: saline) 98 % of control; (dose: 100.0 mg/kg/injection, schedule: Q01DX005 (ip), vehicle: saline) 98 % of control. Further, under “dose: 200.0 mg/kg/injection, schedule: Q01DX005 (ip), vehicle: saline”, the T/C is 98 % of control.
For the compound `Cc1ccc(S(=O)(=O)OCC(C)(C)CC#N)cc1`, the T/C is 96 % of control under setting [13], 96 % of control under setting [14] and 100 % of control under setting [15].
